Measurements from ChEMBL document CHEMBL5528063, “Antitrypanosomal Chloronitrobenzamides” (J Med Chem, 2024).
Active and inactive are the calls of the source. The calls are words filed in the database; no cut-off is given here.

What was measured:
[1] = test system: Trypanosoma brucei brucei; assay: Antitrypanosomal activity against Trypanosoma brucei brucei 427 assessed as inhibition of parasite proliferation incubated for 48 hrs by CellTiter-Glo luminescent assay; assay type: functional, organism-based; conditions: Trypanosoma brucei, 427, 48 h
[2] = Cytotoxicity against human BJ cells assessed as inhibition of cell growth incubated for 72 hrs by CellTiter-Glo luminescence assay; assay type: toxicity, cell-based
[3] = Aqueous solubility of compound in 1-propanol at pH 7.4 incubated for 18 hrs by UV spectrum analysis; assay type: physicochemical; conditions: for solubility at 18 h: 1-propanol (aqueous, pH 7.4), pH 7.4
[4] = Metabolic stability in […] mouse liver microsomes assessed as half-life at 20 uM measured after 2 hrs by UPLC-MS analysis; assay type: ADME, Microsome
[5] = test system: Trypanosoma brucei brucei; assay: Trypanocidal activity against Trypanosoma brucei brucei 427 assessed as reduction in parasitemia at 2.2 uM incubated for 4 days by clonal dilution based CellTiter-Glo assay; assay type: functional, organism-based; conditions: time 4.0 day
[6] = test system: Trypanosoma brucei brucei; assay: Antitrypanosomal activity against Trypanosoma brucei brucei 427 assessed as inhibition of parasite proliferation at 0.7 to 15000 nM incubated for 48 hrs by CellTiter-Glo luminescent assay; assay type: functional, organism-based; conditions: dose 0.7-15000 nM

EC50 [1] [µM]	SMILES	EC50 at 72 h [2] [µM]	also measured
> 8	C[S+]([O-])c1ccc(Cl)c(C(=O)Nc2cccc(-c3nc4ccccc4s3)c2)c1 (stereo not given)	> 25	–
0.004	Cc1ccc(-c2nc3ccccc3s2)cc1NC(=O)c1cc([N+](=O)[O-])ccc1F	> 17	solubility at 18 h [3]: < 1.56 µM; half-life at 20 µM [4]: 21 min
> 11	Cc1ccc(-c2nc3ccccc3s2)cc1NC(=O)c1cc(C(N)=O)ccc1Cl	> 22	–
> 12	COc1ccncc1C(=O)Nc1cc(-c2nc3ccccc3s2)ccc1C	> 21	–
> 33	CSc1ccc(Cl)c(C(=O)Nc2cccc(-c3nc4ccccc4s3)c2)c1	> 25	–
> 5	Cc1ccc(-c2nc3ccccc3s2)cc1NC(=O)c1cc(N)ccc1Cl	> 15	–
> 5	Cc1ccc(-c2nc3ccccc3s2)cc1NC(=O)c1cc(C(=O)O)ccc1Cl	> 15	–
> 16.1	COC(=O)c1ccc(Cl)c(C(=O)Nc2cc(-c3nc4ccccc4s3)ccc2C)c1	> 28	–
0.55	Cc1ccc(-c2nc3ncccc3o2)cc1NC(=O)c1cc([N+](=O)[O-])ccc1Cl	> 25	solubility at 18 h [3]: < 1.56 µM; half-life at 20 µM [4]: 1.2 min
0.044	Cc1ccc(-c2nc3ccccc3s2)cc1NC(=O)c1cnccc1Cl	> 25	solubility at 18 h [3]: < 1 µM; half-life at 20 µM [4]: 12 min
> 8	Cc1ccc(-c2nnn[nH]2)cc1NC(=O)c1cc([N+](=O)[O-])ccc1Cl	> 18	–
> 7	O=C(NC1CCCC(c2nc3ccccc3s2)C1)c1cc([N+](=O)[O-])ccc1Cl (stereo not given)	> 15	–
> 10.6	Cc1ccc(-c2nc3ccccc3s2)cc1NC(=O)c1cnccc1F	> 18	–
> 6	Cc1ccc(-c2nc3ccccc3s2)cc1NC(=O)c1cc(C#N)ccc1Cl	> 15	–
> 7	CC(=O)Nc1ccc(Cl)c(C(=O)Nc2cc(-c3nc4ccccc4s3)ccc2C)c1	> 15	–
> 7	Cc1ccc(-c2nc3ccccc3s2)cc1NC(=O)c1cnccc1C#N	> 13	–
4.56	CS(=O)(=O)c1ccc(Cl)c(C(=O)Nc2cccc(-c3nc4ccccc4s3)c2)c1	> 25	–
> 7	Cc1ccc(-c2nc3ccccc3s2)cc1NC(=O)c1cc([N+](=O)[O-])ccc1C(F)(F)F	> 15	–
0.039	Cc1ccc(-c2nc3ccccc3s2)cc1NC(=O)c1cc([N+](=O)[O-])ccc1Cl	> 25	solubility ([3]; buffer, pH 7.4, 18 h): Insoluble(Bld); half-life at 20 µM [4]: > 240 min
> 8	Cc1ccc(-c2nc3ccccc3s2)cc1NC(=O)c1cc(F)ccc1Cl	> 15	–
> 6	O=C(Nc1ccc(Cl)c(-c2nc3ncccc3o2)c1)c1cc([N+](=O)[O-])ccc1Cl	> 26	–

EC50 [1] [µM]	SMILES	EC50 at 72 h [2] [µM]	also measured
–	N=C(N)c1ccc(OCCCCCOc2ccc(C(=N)N)cc2)cc1	–	Activity [5]: Active
> 7	Cc1ccc(-c2nc3ccccc3s2)cc1NC(=O)c1cc([N+](=O)[O-])ccc1O	> 14	–
> 7	O=C(Nc1cccc(-c2nccs2)c1)c1cc([N+](=O)[O-])ccc1Cl	> 18	–
> 8	O=C(Nc1cccc(-c2ncc[nH]2)c1)c1cc([N+](=O)[O-])ccc1Cl	> 18	–
> 6	Cc1ccc(-c2nc3ccccc3s2)cc1NC(=O)c1cc(C(F)(F)F)ccc1Cl	> 15	–
> 7	O=C(Nc1cccc(-c2nc3ccccc3s2)n1)c1cc([N+](=O)[O-])ccc1Cl	> 15	–
> 8	Cc1ccc(-c2nc3ccccc3s2)cc1NC(=O)c1cnccc1O	> 14	–
> 7	Cc1ccc(-c2nc3ccccc3s2)cc1NC(=O)c1cnccc1C(F)(F)F	> 14	–
0.09	O=C(Nc1cccc(-c2nc3ccccc3s2)n1)c1cnccc1Cl	> 15	solubility at 18 h [3]: < 1.56 µM; half-life at 20 µM [4]: 2 min
–	Cc1ccc(-c2nnn[nH]2)nc1NC(=O)c1cnccc1Cl	> 18	Activity [6]: inactive
> 9	Cc1ccc(-c2nc3ccccc3s2)cc1NC(=O)c1cc([N+](=O)[O-])ccc1C#N	> 17	–
2.22	Cc1nc(-c2cccc(NC(=O)c3cc([N+](=O)[O-])ccc3Cl)c2)sc1C	> 17	–
> 1	COc1ccc([N+](=O)[O-])cc1C(=O)Nc1cc(-c2nc3ccccc3s2)ccc1C	> 2	–
> 8	Cc1ccc(-c2nc3ccccc3s2)cc1NC(=O)c1cc(NC(=O)OC(C)(C)C)ccc1Cl	> 15	–
> 44	O=C(Nc1cccc(-c2nccs2)n1)c1cnccc1Cl	> 18	–
> 8	O=C(Nc1cncc(-c2nc3ccccc3s2)c1)c1cc([N+](=O)[O-])ccc1Cl	> 15	–
0.1	O=C(Nc1cccc(-c2nc3ccccc3s2)c1)c1cc([N+](=O)[O-])ccc1Cl	> 15	solubility at 18 h [3]: < 1 µM; half-life at 20 µM [4]: 11 min
0.22	O=C(Nc1cc(-c2nc3ccccc3s2)ccc1Br)c1cc([N+](=O)[O-])ccc1Cl	> 20	solubility at 18 h [3]: < 1.56 µM; half-life at 20 µM [4]: 1.7 min
> 8	O=C(Nc1cccc(-c2ncco2)c1)c1cc([N+](=O)[O-])ccc1Cl	> 18	–
> 5	O=C(Nc1cncc(-c2nc3ccccc3s2)c1)c1cnccc1Cl	> 11	–
